Legend:
[1] = target: recombinant human dipeptidyl peptidase IV (DPPIV) (Homo sapiens, UniProt P27487); assay: Selective assay, protease inhibition (DPPIV); format: biochemical; settings: substrate Gly-Pro-AMC; read-out: pIC50 (DPPIV) (converted)
Procedure: (§1) The specificity of the synthesized compounds against recombinant human dipeptidyl peptidase IV (DPPIV), fibroblast activation protein (FAP), or prolyl oligopeptidase (PREP) was expressed by their half-maximal inhibitory concentration (IC50) against the proteases.
(§2) 1) The synthesized compound was dissolved in DMSO to a final concentration of 100 mM.
b) For DPPIV assay: The test compound was diluted to a 1 mM solution using a buffer of 25 mM Tris, 250 mM NaCl at pH 7.5.
(§3) 2) The prepared 1 mM test compound solution was serially diluted (1:10) into a row of a 96-well plate using the corresponding buffer mentioned above.
(§4) 3) The substrate was prepared as a DMSO stock solution (FAP and PREP: 2.5 mM Z-Gly-Pro-AMC (VWR, Cat. No. I-1145.0050BA) in DMSO; DPPIV: 100 mM Gly-Pro-AMC (VWR, Cat. No. 100042-646) in DMSO), and subsequently the substrate stock solution was diluted 20-fold using the corresponding buffer mentioned above.
(§5) 4) The enzyme was diluted into the appropriate assay buffer. The final concentrations of DPPIV, FAP, and PREP were […], respectively. To each required well in columns 2-10, 180 μL was added separately. Column 1 (A, B, C) was prepared with 200 μL of the appropriate assay buffer as a control. […]
(§6) 7) Fluorescence was measured at λex: 380, λem: 460. […]

[2] = target: T1, recombinant human fibroblast activation protein (FAP) (Homo sapiens, UniProt Q12884); assay: Selective assay, protease inhibition (FAP); format: biochemical; settings: substrate Z-Gly-Pro-AMC
T1 sequence (Q12884 1-760): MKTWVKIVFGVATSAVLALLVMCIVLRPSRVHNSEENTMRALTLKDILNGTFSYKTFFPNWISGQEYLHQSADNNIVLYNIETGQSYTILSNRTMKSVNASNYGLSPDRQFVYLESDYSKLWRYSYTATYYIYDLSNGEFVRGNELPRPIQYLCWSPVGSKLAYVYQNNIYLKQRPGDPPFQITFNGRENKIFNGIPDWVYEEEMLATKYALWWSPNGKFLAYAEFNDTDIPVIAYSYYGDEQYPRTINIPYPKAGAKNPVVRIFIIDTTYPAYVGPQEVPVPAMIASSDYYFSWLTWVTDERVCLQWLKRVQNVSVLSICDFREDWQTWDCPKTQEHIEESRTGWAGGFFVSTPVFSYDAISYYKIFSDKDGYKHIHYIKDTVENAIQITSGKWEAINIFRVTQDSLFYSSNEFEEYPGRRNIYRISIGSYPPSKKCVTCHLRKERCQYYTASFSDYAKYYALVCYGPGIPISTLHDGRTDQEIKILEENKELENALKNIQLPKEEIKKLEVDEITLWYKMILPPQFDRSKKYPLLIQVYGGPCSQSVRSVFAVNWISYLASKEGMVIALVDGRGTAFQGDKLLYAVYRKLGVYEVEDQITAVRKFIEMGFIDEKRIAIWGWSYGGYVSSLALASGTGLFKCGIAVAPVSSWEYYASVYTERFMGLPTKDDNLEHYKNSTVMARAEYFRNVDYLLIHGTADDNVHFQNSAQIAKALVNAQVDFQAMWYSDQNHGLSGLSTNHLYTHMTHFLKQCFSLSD
Procedure: as §1, §2
a) For FAP assay: The test compound was diluted to a 1 mM solution using a buffer of 50 mM Tris, 140 mM NaCl at pH 7.5.
as §3, §4, §5, §6

FAP protein = target: T2, FAP protein (Homo sapiens, UniProt Q12884); assay: Biacore test of ligand binding to FAP protein; settings: FAP protein on SA chip, 15° C., 1:1 binding model
T2 construct: purchased Sinobiological
T2 sequence (Q12884 1-760): T1 sequence (Q12884 1-760)
Procedure: The Biacore 8K (Cytiva) instrument was used to detect ligand binding of the FAP protein (Sinobiological). The FAP protein was captured on the SA chip. Before ligand immobilization (flow paths 1 and 2, flow rate of 10 μL/min), the FAP protein (10 μg/mL, flow rate of 5 μL/min, injection time of 600 s) was immobilized on flow path 2 using running buffer, and the sensor surface was conditioned with three consecutive injections of 1 M NaCl in 50 mM NaOH. After each ligand injection, additional washing was carried out with isopropanol in 1 M NaCl and 50 mM NaOH (flow paths 1 and 2, flow rate of 10 μL/min, injection time of 60 s).
The test compounds were dissolved in 100% dimethyl sulfoxide and diluted to 10 mM, then further diluted in the assay buffer (PBS, pH 7.4, 1 mM TCEP ([…]), 0.05% P20, 2% dimethyl sulfoxide) to appropriate maximum concentrations. The analyte was run under the following conditions: analysis temperature=15° C., analysis step=all set to LMW kinetics; cycle type=single cycle (90 s contact time, 1800 s dissociation time, 30 μL/min flow rate, flow channels 1, 2); flow channel detection=2-1). Data evaluation was performed using Biacore Insight Evaluation Software, and the data were fitted to a 1:1 binding model.
The Biacore results are shown in Table 1: pKD=−Log KD, where KD is the binding affinity of the compound to the FAP protein as measured by Biacore. The binding affinity is expressed by KD (M)=Kd(1/s)/Ka(1/Ms). Where A: pKD>8, B: 7<pKD<8, C: 6<pKD<7, D: pKD<6.

recombinant human dipeptidyl peptidase IV (DPPIV), sequence (P27487 whole entry): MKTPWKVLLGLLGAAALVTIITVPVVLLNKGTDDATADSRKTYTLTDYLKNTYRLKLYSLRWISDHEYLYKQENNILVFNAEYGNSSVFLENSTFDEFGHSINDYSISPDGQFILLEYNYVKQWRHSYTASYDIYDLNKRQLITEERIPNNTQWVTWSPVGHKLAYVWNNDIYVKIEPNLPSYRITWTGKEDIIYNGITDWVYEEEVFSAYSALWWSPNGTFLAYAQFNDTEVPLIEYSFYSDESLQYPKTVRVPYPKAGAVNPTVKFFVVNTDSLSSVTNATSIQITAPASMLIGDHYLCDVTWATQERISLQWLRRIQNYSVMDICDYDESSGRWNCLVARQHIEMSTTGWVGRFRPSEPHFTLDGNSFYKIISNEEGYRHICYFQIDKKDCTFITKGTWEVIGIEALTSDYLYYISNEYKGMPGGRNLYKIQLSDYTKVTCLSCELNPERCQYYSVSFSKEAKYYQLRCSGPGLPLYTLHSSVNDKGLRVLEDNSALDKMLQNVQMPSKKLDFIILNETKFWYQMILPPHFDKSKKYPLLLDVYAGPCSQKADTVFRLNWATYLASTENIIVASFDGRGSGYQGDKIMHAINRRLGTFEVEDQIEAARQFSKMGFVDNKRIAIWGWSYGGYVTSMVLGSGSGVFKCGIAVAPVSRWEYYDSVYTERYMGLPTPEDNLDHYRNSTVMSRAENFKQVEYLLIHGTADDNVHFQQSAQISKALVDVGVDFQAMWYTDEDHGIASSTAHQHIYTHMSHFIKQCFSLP

SMILES: N#C[C@@H]1CC(F)(F)CN1C(=O)CNC(=O)c1cccc2c1CCN(C(=O)CCC(=O)NCCNC(=O)CCC(C(=O)O)N1CCN(CC(=O)O)CCN(CC(=O)O)CCN(CC(=O)O)CC1)C2 (stereo partly drawn) [JHH5]
- IC50 [1]: > 1000 nM
- IC50 [2]: 10 to 100 nM
- Kd (FAP protein): < 10 nM

Reference: US20260226049A1, “NITROGEN-CONTAINING HETEROCYCLIC COMPOUND, PREPARATION METHOD THEREFOR, AND USE THEREOF” (BIVISION PHARMACEUTICALS, INC, priority 2023, published 2026)
